Reference: patent US7943630B2, “3,9-diaza-spiro[5.5]undecane derivatives and their use as monoamine neurotransmitter re-uptake inhibitors” (Neurosearch A/S, priority 2005, dated 2011)

melting point	Compound
71.2 to 72.9 °C	Clc1ccc(N2CCC3(CCNCC3)CC2)nc1
198.5 to 199.3 °C	Brc1cccc(N2CCC3(CCNCC3)CC2)n1.O=C(O)/C=C/C(=O)O
80.4 to 81.9 °C	Clc1cccc(N2CCC3(CCNCC3)CC2)c1Cl
201.4 to 202.2 °C	Fc1ccc(N2CCC3(CCNCC3)CC2)cc1Cl.O=C(O)/C=C/C(=O)O
103 to 105 °C	Brc1ccc(N2CCC3(CCNCC3)CC2)nc1
175.8 to 177.6 °C	COc1ccc2cc(N3CCC4(CCNCC4)CC3)ccc2c1 [3rd compound of method C, 3-(6-Methoxy-naphthalen-2-yl)-3,9-diaza-spiro[5.5]undecane]
209 to 212 °C	Clc1ccc(N2CCC3(CCNCC3)CC2)cc1Cl [4th compound of method C, 3-(3,4-Dichloro-phenyl)-3,9-diaza-spiro[5.5]undecane]
95.5 to 97.4 °C	Clc1ccc(N2CCC3(CCNCC3)CC2)cc1 [7th compound of method C, 3-(4-Chloro-phenyl)-3,9-diaza-spiro[5.5]undecane]
158 to 162 °C	c1ccc2cc(N3CCC4(CCNCC4)CC3)ccc2c1 [10th compound of method C, 3-Naphthalen-2-yl-3,9-diaza-spiro[5.5]undecane]
